From ChEMBL document CHEMBL1142000, “(R)-2-(4-Phenylbutyl)dihydrobenzofuran derivatives as melatoninergic agents” (Bioorg Med Chem Lett, 2005)

Tests used:
[1] = target: T1, Melatonin receptor type 1B (Homo sapiens, UniProt P49286); assay: Binding affinity against Melatonin receptor type 1B stably expressed in NIH3T3 cells using 2-[125I]iodomelatonin; assay type: cell-based
T1 sequence (P49286 whole entry): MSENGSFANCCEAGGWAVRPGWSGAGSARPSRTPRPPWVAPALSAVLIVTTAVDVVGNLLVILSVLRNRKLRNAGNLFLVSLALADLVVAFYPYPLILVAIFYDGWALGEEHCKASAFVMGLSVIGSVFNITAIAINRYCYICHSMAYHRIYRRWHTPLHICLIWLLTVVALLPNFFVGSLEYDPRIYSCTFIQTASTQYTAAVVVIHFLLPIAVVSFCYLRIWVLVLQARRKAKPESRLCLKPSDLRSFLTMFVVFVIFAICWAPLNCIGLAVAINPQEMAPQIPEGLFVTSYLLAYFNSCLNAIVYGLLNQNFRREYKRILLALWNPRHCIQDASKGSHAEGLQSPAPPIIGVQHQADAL

[2] = target: Melatonin receptor type 1A (Homo sapiens, UniProt P48039); assay: Binding affinity against Melatonin receptor type 1A stably expressed in NIH3T3 cells using 2-[125I]iodomelatonin; assay type: cell-based
Chain of Melatonin receptor type 1A (P48039 whole entry): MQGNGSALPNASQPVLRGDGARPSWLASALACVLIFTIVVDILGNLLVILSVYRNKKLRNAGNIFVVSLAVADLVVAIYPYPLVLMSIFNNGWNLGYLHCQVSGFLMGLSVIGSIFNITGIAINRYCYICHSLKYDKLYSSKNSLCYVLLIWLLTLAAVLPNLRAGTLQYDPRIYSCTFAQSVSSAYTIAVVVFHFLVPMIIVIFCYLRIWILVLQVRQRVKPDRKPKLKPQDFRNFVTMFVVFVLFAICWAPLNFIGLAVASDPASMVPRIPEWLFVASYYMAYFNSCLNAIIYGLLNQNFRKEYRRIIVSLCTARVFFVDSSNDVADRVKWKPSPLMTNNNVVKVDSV

Structure (SMILES) | Ki [1] | Ki [2]
CCC(=O)NCCCc1cccc2c1C[C@@H](CCCCc1ccccc1)O2 | 20 nM | 1 nM
CC(C)C(=O)NCCCc1cccc2c1C[C@@H](CCCCc1ccccc1)O2 | 40 nM | 4 nM
O=C(NCCCc1cccc2c1C[C@@H](CCCCc1ccccc1)O2)C1CC1 | 30 nM | 2 nM
CC(C)C(=O)NC[C@@H]1C[C@H]1c1cccc2c1C[C@@H](CCCCc1ccccc1)O2 | 90 nM | 6 nM
CCNC(=O)NC[C@@H]1C[C@H]1c1c(Cl)ccc2c1C[C@@H](CCCCc1ccccc1)O2 | 90 nM | 60 nM
CCNC(=O)NC[C@@H]1C[C@H]1c1cccc2c1C[C@@H](CCCCc1ccccc1)O2 | 40 nM | 9 nM
CCNC(=O)NCCCc1cccc2c1C[C@@H](CCCCc1ccccc1)O2 | 40 nM | 9 nM
CCCC(=O)NCCCc1cccc2c1C[C@@H](CCCCc1ccccc1)O2 | 30 nM | 2 nM

Now those with a lower Ki [1], led by results:

Ki [1] | Ki [2] | Structure (SMILES)
8 nM | 4 nM | CC(=O)NCCCc1cccc2c1C[C@@H](CCCCc1ccccc1)O2
2 nM | 2 nM | CCCC(=O)NC[C@@H]1C[C@H]1c1cccc2c1C[C@@H](CCCCc1ccccc1)O2
5 nM | 1 nM | O=C(NC[C@@H]1C[C@H]1c1cccc2c1C[C@@H](CCCCc1ccccc1)O2)C1CC1
2 nM | 1 nM | CCC(=O)NC[C@@H]1C[C@H]1c1cccc2c1C[C@@H](CCCCc1ccccc1)O2
2 nM | 1 nM | CC(=O)NC[C@@H]1C[C@H]1c1cccc2c1C[C@@H](CCCCc1ccccc1)O2
